Laboratory results taken from patent publication US6166036A, “Lp(a)-lowering agent and apolipoprotein (a) formation suppressing agent” (Taiho Pharmaceutical Co., Ltd., priority 1998, dated 2000).

Columns and labels:
apo(a) gene = assay: Test on suppression of apo(a) gene expression (luciferase assay in HepG2 cells); assay type: cell-based, human; conditions: final concentration of 2 μM, 48 hours; for inhibition at 2 µM: Homo sapiens, relative to DMSO control group, read-out: Expression ratio (%) of apo(a) gene; for effect on expression of apo(a) gene (in words): conclusion from Table 5
Method: This test was carried out in accordance with the method described in "BIOCHEMICAL AND BIOPHYSICAL RESEARCH COMMUNICATIONS 227, 570-575[…] ARTICLE No. 1547". Described specifically, 2 μg/mL of an apo(a) gene (1441 base pairs) separated from the blood of normal volunteers was introduced into HepG2 cells (2×10^5 cells/mL), followed by culturing for 16 hours. Compound 4 was dissolved in DMSO (dimethylsulfoxide) to give a final concentration of 2 μM, to which the cultured cells were added. After culturing for further 48 hours, the expression of an apo(a) gene was measured regarding it as luciferases reaction and therefore, using luciferases assay system (Picagene) of Toyo Ink Mfg. Co., Ltd. for the analysis of gene expression. Namely, the cultured HepG2 cells were dissolved in a liquid to dissolve them therein. The resulting solution was centrifuged to obtain a supernatant. To 200 μl of the resulting supernatant was added 100 μl of a […] substrate, followed by mixing for 15 seconds. The luminescence was measured by a chemo-bioluminescence measuring device (Luminoscan RS) of Dainippon Pharmaceutical Co., Ltd. and expression ratio of an apo(a) gene was determined. The expression ratio of an apo(a) gene was calculated from the ratio to the luminescence of a group (control group) to which the same amount of DMSO had been added. As comparative compounds, pravastatin (HMG-COA reductase inhibitor, sterol synthesis inhibitor) and bezafibrate (fibrate series medicament, antihyperlipoproteinemic) were treated in a similar manner and provided for the test.

Lp(a) = assay: A test on lowering of the Lp(a) level in crab-eating monkeys; assay type: in vivo, crab-eating monkey; conditions: oral 30 mg/kg, three weeks; for Changing ratio (%) of Lp(a): male, 5 per group, Lp(a) level in blood, average value; for effect on Lp(a) level (in words): conclusion from Table 6
Method: Crab-eating monkeys (male, 2.4 to 3.9 kg in weight) were reared in groups, each group consisting of 5 monkeys. Compound 4 was suspended in a 0.5%, HPMC (hydroxypropylmethyl cellulose) solution in an amount of 30 mg/5 mL, whereby the test compound was prepared. To the specimen-administered group, the test compound was orally administered at a dose of 30 mg/kg. At the starting time of administration and three weeks after administration, the Lp(a) level in the blood of the tested animals was measured. For the measurement, a kit ("Immunosearch Lp(a) TIA") commercially available from Cosmo Bio Co., Ltd. was employed. Namely, according to the procedure as indicated in the kit, the measurement was carried out by adding 256 μl of a phosphate buffer to 7 μl of the serum and then adding the goat anti-human Lp(a) serum to the resulting mixture. For the measurement, a biochemical automatic analyzer ("Hitachi 7170"; product of Hitachi Ltd.) was employed. As a comparative compound, pravastatin and bezafibrate were treated similarly and provided for the test. From the measuring results, a changing ratio (%) of the Lp(a) level at the starting time of administration relative to that three weeks after the administration was determined with regards to each of the monkeys and the average value was expressed as an Lp(a) lowering ratio.

beagles = assay: Acute toxicity test in beagles; assay type: in vivo, beagle dog; conditions: 7-month old male beagles, 2 per group, fasted 16 hours; oral 2000 mg/kg in 0.5% HPMC
Method: After 7-month old beagles (male, each group consisting of 2 beagles) were fasted for 16 hours, Compound 4 suspended in a 0.5%, HPMC solution was orally administered at a dose of 2000 mg/kg.

Compound	inhibition at 2 µM (apo(a) gene)	effect on expression of apo(a) gene (in words) (apo(a) gene)	Changing ratio (%) of Lp(a) (Lp(a))	effect on Lp(a) level (in words) (Lp(a))	death cases (beagles)	serious side effects (beagles)
CC(C)(Oc1ccc(CCNC(=O)c2ccc(Cl)cc2)cc1)C(=O)O [Bezafibrate, bezafibrate]	-3%	reinforced the expression of the apo(a) gene	+8%	increased the Lp(a) level	–	–
CC(C)(C)c1ccc(N2C[C@@H](COc3ccc(C(=O)O)cc3)CC2=O)cc1 [Compound 4, (S)-(+)-4-[1-(4-tert-butylphenyl)-2-pyrrolidon-4-yl]methoxybenzoic acid]	24%	exhibited excellent effects for suppressing the expression of an apo(a) gene	-33%	exhibited excellent Lp(a) lowering effects	neither death case	nor serious side effects were recognized
CC[C@H](C)C(=O)O[C@H]1C[C@H](O)C=C2C=C[C@H](C)[C@H](CC[C@@H](O)C[C@@H](O)CC(=O)O)[C@H]21 [Pravastatin, pravastatin]	-27%	reinforced the expression of the apo(a) gene	+35%	increased the Lp(a) level	–	–
